In US10159640B2, “Prebiotic oral care compositions containing amino acids” (COLGATE-PALMOLIVE COMPANY, priority 2013, dated 2018):

Experiments:
Assay type in all cases: cell-based
[1] = tested on: Actinomyces naeslundii; assay: Metabolic activity, Biolog phenotype microarray; settings: control without dipeptide = 1
Protocol: (§1) The extent of metabolic activity of the tested bacteria in the presence of the above-mentioned dipeptides after 24 hours and 48 hours was investigated through a high throughput phenotype microarray system (PM) for microbial cells (Biolog Inc.). Each PM can contain up to 95 different biochemical compounds (e.g. di-peptides) that may act as substrates for bacteria as well as one negative control, not containing the substrates. Microarray plates were used in which the different wells of each plate were pre-loaded (by the manufacturer, Biolog Inc.) with different di-peptides to be tested. Each bacterial species was tested using a separate microarray plate. Thus, a single bacterial species was tested with a variety of dipeptides on each particular plate. The microarrays are based on redox technology, using cell respiration as a universal reporter. Active cell respiration results in the reduction of a tetrazolium dye and in the formation of a strong color—for example, when using the tetrazolium dye “Biolog Redox Dye Mix D”, the color changes from transparent/colourless to purple when the dye is reduced. The observation of this color change indicates which of the substrates improve the metabolic activity and health of the cells. Each bacterial species was collected from blood agar plates (incubated for 48 hours anaerobically at 37° C.) and transferred to an IF-0 Base inoculation fluid (Biolog Inc.), which is a nutritionally poor medium. The resulting cell suspension was adjusted to a transmittance of 42% (relative to the transmittance of the base inoculation fluid with no bacterial species present) at 492 nm using a BioRad SmartSpec 3000 Photometer (the adjustment being effected by adding either further inoculation fluid or further bacteria until the transmittance of 42% was achieved). A 1:5 dilution of this suspension was prepared by mixing 3 mL of the 42% transmittance cell suspension with 15 mL of an inoculation fluid (which inoculation fluid was formed by mixing 11.6 mL sterile water, 62.5 mL IF-0 base inoculation fluid and 0.9 mL of the tetrazolium dye “Biolog Redox Dye mix D”), resulting in a final cell density which was equal to 85% transmittance using a BioRad SmartSpec 3000 Photometer. 680 μL of a 2M sodium succinate/200 μM ferric citrate solution in distilled water was added to 68 mL of the 85% transmittance cell suspension and 100 μL of this mixture was added to each well (the various di-peptides being already present in powder form in the relevant wells of the plate as obtained from the supplier i.e. Biolog Inc.). All plates were incubated in an anaerobic atmosphere at 37° C. Color changes were measured spectrophotometrically at 492 nm (Thermo Scientific Multiskan Ascent) at 24 hrs and 48 hrs using the same plate at both time points. […] After 24 hrs and 48 hrs under continuous shaking in a Multiscan microplate reader, the optical density (OD) of the synthetic medium at 24 hours and 48 hours was measured (using the microplate reader) at a wavelength of 492 nm for each combination of bacterium/dipeptide, and for each of their respective controls (i.e. which contained the particular bacterium but no dipeptide). […] The experiment was carried out three times for each combination of bacterium with dipeptide, with each repeat being carried out on a different day (thus providing three biological replicas). The controls were also carried out three times, as above. The values shown are the average (mean) of the three single values obtained (as detailed above) for each combination of bacterium with dipeptide, at 24 hrs and at 48 hrs.

[2] = tested on: Actinomyces viscosus; assay: Metabolic activity, Biolog phenotype microarray; settings: control without dipeptide = 1
Protocol: as §1

[3] = tested on: Aggregatibacter actinomycetemcomitans; assay: Metabolic activity, Biolog phenotype microarray; settings: control without dipeptide = 1
Protocol: as §1

[4] = tested on: Capnocytophaga sputigena; assay: Metabolic activity, Biolog phenotype microarray; settings: control without dipeptide = 1
Protocol: as §1

[5] = tested on: Fusobacterium nucleatum; assay: Metabolic activity, Biolog phenotype microarray; settings: control without dipeptide = 1
Protocol: as §1

[6] = tested on: Porphyromonas gingivalis; assay: Metabolic activity, Biolog phenotype microarray; settings: control without dipeptide = 1
Protocol: as §1

[7] = tested on: Prevotella intermedia; assay: Metabolic activity, Biolog phenotype microarray; settings: control without dipeptide = 1
Protocol: as §1

[8] = tested on: Streptococcus gordonii; assay: Metabolic activity, Biolog phenotype microarray; settings: control without dipeptide = 1
Protocol: as §1

[9] = tested on: Streptococcus mitis; assay: Metabolic activity, Biolog phenotype microarray; settings: control without dipeptide = 1
Protocol: as §1

[10] = tested on: Streptococcus mutans; assay: Metabolic activity, Biolog phenotype microarray; settings: control without dipeptide = 1
Protocol: as §1

[11] = tested on: Streptococcus salivarius; assay: Metabolic activity, Biolog phenotype microarray; settings: control without dipeptide = 1
Protocol: as §1

[12] = tested on: Streptococcus sanguinis; assay: Metabolic activity, Biolog phenotype microarray; settings: control without dipeptide = 1
Protocol: as §1

[13] = tested on: Streptococcus sobrinus; assay: Metabolic activity, Biolog phenotype microarray; settings: control without dipeptide = 1
Protocol: as §1

[14] = tested on: Tannerella forsythia; assay: Metabolic activity, Biolog phenotype microarray; settings: control without dipeptide = 1
Protocol: as §1

[15] = tested on: Veillonella parvula; assay: Metabolic activity, Biolog phenotype microarray; settings: control without dipeptide = 1
Protocol: as §1

[16] = tested on: beneficial oral bacteria and pathogenic oral bacteria; assay: Metabolic activity, whole panel: prebiotic effect; settings: threshold value of 2
Protocol: Substrates that were able to increase the metabolic activity of at least one of the above beneficial bacteria while not or only minimally increasing the growth of the pathogenic bacteria are considered to be prebiotic substrates. The extent of metabolic activity of the tested bacteria in the presence of the above-mentioned dipeptides after 24 hours and 48 hours was investigated through a high throughput phenotype microarray system (PM) for microbial cells (Biolog Inc.). Each PM can contain up to 95 different biochemical compounds (e.g. di-peptides) that may act as substrates for bacteria as well as one negative control, not containing the substrates. Microarray plates were used in which the different wells of each plate were pre-loaded (by the manufacturer, Biolog Inc.) with different di-peptides to be tested. Each bacterial species was tested using a separate microarray plate. Thus, a single bacterial species was tested with a variety of dipeptides on each particular plate. The microarrays are based on redox technology, using cell respiration as a universal reporter. Active cell respiration results in the reduction of a tetrazolium dye and in the formation of a strong color—for example, when using the tetrazolium dye “Biolog Redox Dye Mix D”, the color changes from transparent/colourless to purple when the dye is reduced. The observation of this color change indicates which of the substrates improve the metabolic activity and health of the cells. Each bacterial species was collected from blood agar plates (incubated for 48 hours anaerobically at 37° C.) and transferred to an IF-0 Base inoculation fluid (Biolog Inc.), which is a nutritionally poor medium. The resulting cell suspension was adjusted to a transmittance of 42% (relative to the transmittance of the base inoculation fluid with no bacterial species present) at 492 nm using a BioRad SmartSpec 3000 Photometer (the adjustment being effected by adding either further inoculation fluid or further bacteria until the transmittance of 42% was achieved). A 1:5 dilution of this suspension was prepared by mixing 3 mL of the 42% transmittance cell suspension with 15 mL of an inoculation fluid (which inoculation fluid was formed by mixing 11.6 mL sterile water, 62.5 mL IF-0 base inoculation fluid and 0.9 mL of the tetrazolium dye “Biolog Redox Dye mix D”), resulting in a final cell density which was equal to 85% transmittance using a BioRad SmartSpec 3000 Photometer. 680 μL of a 2M sodium succinate/200 μM ferric citrate solution in distilled water was added to 68 mL of the 85% transmittance cell suspension and 100 μL of this mixture was added to each well (the various di-peptides being already present in powder form in the relevant wells of the plate as obtained from the supplier i.e. Biolog Inc.). All plates were incubated in an anaerobic atmosphere at 37° C. Color changes were measured spectrophotometrically at 492 nm (Thermo Scientific Multiskan Ascent) at 24 hrs and 48 hrs using the same plate at both time points. […] After 24 hrs and 48 hrs under continuous shaking in a Multiscan microplate reader, the optical density (OD) of the synthetic medium at 24 hours and 48 hours was measured (using the microplate reader) at a wavelength of 492 nm for each combination of bacterium/dipeptide, and for each of their respective controls (i.e. which contained the particular bacterium but no dipeptide). […] The experiment was carried out three times for each combination of bacterium with dipeptide, with each repeat being carried out on a different day (thus providing three biological replicas). The controls were also carried out three times, as above. The values shown are the average (mean) of the three single values obtained (as detailed above) for each combination of bacterium with dipeptide, at 24 hrs and at 48 hrs. […] This value was selected in order to exclude low-stimulating metabolites and avoid false positive results.

Row | Substance | metabolic activity: OD 492 nm divided by OD of control ([1]; 24 hrs) | metabolic activity: OD 492 nm divided by OD of control ([1]; 48 hrs) | metabolic activity: OD 492 nm divided by OD of control ([2]; 24 hrs) | metabolic activity: OD 492 nm divided by OD of control ([2]; 48 hrs) | metabolic activity: OD 492 nm divided by OD of control ([3]; 24 hrs) | metabolic activity: OD 492 nm divided by OD of control ([3]; 48 hrs) | metabolic activity: OD 492 nm divided by OD of control ([4]; 24 hrs) | metabolic activity: OD 492 nm divided by OD of control ([4]; 48 hrs) | metabolic activity: OD 492 nm divided by OD of control ([5]; 24 hrs) | metabolic activity: OD 492 nm divided by OD of control ([5]; 48 hrs) | metabolic activity: OD 492 nm divided by OD of control ([6]; 24 hrs) | metabolic activity: OD 492 nm divided by OD of control ([6]; 48 hrs) | metabolic activity: OD 492 nm divided by OD of control ([7]; 24 hrs) | metabolic activity: OD 492 nm divided by OD of control ([7]; 48 hrs) | metabolic activity: OD 492 nm divided by OD of control ([8]; 24 hrs) | metabolic activity: OD 492 nm divided by OD of control ([8]; 48 hrs) | metabolic activity: OD 492 nm divided by OD of control ([9]; 24 hrs) | metabolic activity: OD 492 nm divided by OD of control ([9]; 48 hrs) | metabolic activity: OD 492 nm divided by OD of control ([10]; 24 hrs) | metabolic activity: OD 492 nm divided by OD of control ([10]; 48 hrs) | other results
1 | Ser-Asn | 1.3199 | 1.6167 | 1.7174 | 2.0421 | 1.3093 | 1.7285 | 2.2418 | 1.5699 | 1.2165 | 1.4289 | 1.0079 | 1.2165 | 1.1002 | 1.1329 | 0.8814 | 1.3337 | 1.0807 | 1.5785 | 1.2715 | 1.7588 | metabolic activity: OD 492 nm divided by OD of control ([11]; 24 hrs): 1.1917; metabolic activity: OD 492 nm divided by OD of control ([11]; 48 hrs): 1.5886; metabolic activity: OD 492 nm divided by OD of control ([12]; 24 hrs): 1.1935; metabolic activity: OD 492 nm divided by OD of control ([12]; 48 hrs): 1.5794; metabolic activity: OD 492 nm divided by OD of control ([13]; 24 hrs): 1.2753; metabolic activity: OD 492 nm divided by OD of control ([13]; 48 hrs): 1.7028; metabolic activity: OD 492 nm divided by OD of control ([14]; 24 hrs): 1.2030; metabolic activity: OD 492 nm divided by OD of control ([14]; 48 hrs): 1.4354; metabolic activity: OD 492 nm divided by OD of control ([15]; 24 hrs): 1.1101; metabolic activity: OD 492 nm divided by OD of control ([15]; 48 hrs): 1.1143; prebiotic effects (metabolic activity) ([16]; 24 hrs): exhibited prebiotic effects; prebiotic effects (metabolic activity) ([16]; 48 hrs): exhibited prebiotic effects
2 | Ser-Gln | 1.2183 | 1.5857 | 1.6173 | 2.0308 | 0.9996 | 1.1574 | 2.2409 | 1.6963 | 1.2502 | 1.6185 | 1.1453 | 1.4999 | 1.2382 | 1.3661 | 0.9754 | 1.4584 | 1.0595 | 1.5980 | 1.2511 | 1.7642 | metabolic activity: OD 492 nm divided by OD of control ([11]; 24 hrs): 1.1847; metabolic activity: OD 492 nm divided by OD of control ([11]; 48 hrs): 1.6185; metabolic activity: OD 492 nm divided by OD of control ([12]; 24 hrs): 1.1901; metabolic activity: OD 492 nm divided by OD of control ([12]; 48 hrs): 1.6298; metabolic activity: OD 492 nm divided by OD of control ([13]; 24 hrs): 1.1504; metabolic activity: OD 492 nm divided by OD of control ([13]; 48 hrs): 1.6280; metabolic activity: OD 492 nm divided by OD of control ([14]; 24 hrs): 1.1929; metabolic activity: OD 492 nm divided by OD of control ([14]; 48 hrs): 1.4647; metabolic activity: OD 492 nm divided by OD of control ([15]; 24 hrs): 0.8812; metabolic activity: OD 492 nm divided by OD of control ([15]; 48 hrs): 0.8706; prebiotic effects (metabolic activity) ([16]; 24 hrs): exhibited prebiotic effects; prebiotic effects (metabolic activity) ([16]; 48 hrs): exhibited prebiotic effects
